Patent publication US20090298834A1, “4-(AMINOMETHYL)CYCLOHEXANAMINE DERIVATIVES AS CALCIUM CHANNEL BLOCKERS” (priority 2008, published 2009)

Key:
[1] = target: T1, human α1G T-type channels (Homo sapiens, UniProt O43497); assay: T-type calcium channel block, whole cell patch clamp (α1G); format: cell-based; conditions: HEK cells stably expressing human α1G; mainly non-inactivated protocol; values above 10 μM represented as 10 μM, values below 0.30 μM represented as 0.30 μM
T1 construct: expressed in transfected cells; host or cells: HEK 293
In short: (§1)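 Whole-cell patch clamp was run on HEK293 cells stably expressing human α1G or α1H. Cells were held at −110 mV and given a 1 s pre-pulse to −100 mV (non-inactivating protocol) before a 50 ms test pulse to −40 mV. Compounds were applied by gravity in external solution with 0.1-0.01% DMSO, and IC50 values are in μM, capped at 10 μM.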

[2] = target: T2, human α1H T-type channels (Homo sapiens, UniProt O95180); assay: T-type calcium channel block, whole cell patch clamp (α1H); format: cell-based; conditions: HEK cells stably expressing human α1H; mainly non-inactivated protocol; values above 10 μM represented as 10 μM
T2 construct: expressed in transfected cells; host or cells: HEK 293
In short: as §1

[3] = test system: T-type over L-type channels; conditions: cited from earlier work
[4] = test system: spinal nerve ligation model of neuropathic pain; conditions: rats; Dogrul et al., Pain (2003); cited from earlier work

T2 sequence (O95180 whole entry): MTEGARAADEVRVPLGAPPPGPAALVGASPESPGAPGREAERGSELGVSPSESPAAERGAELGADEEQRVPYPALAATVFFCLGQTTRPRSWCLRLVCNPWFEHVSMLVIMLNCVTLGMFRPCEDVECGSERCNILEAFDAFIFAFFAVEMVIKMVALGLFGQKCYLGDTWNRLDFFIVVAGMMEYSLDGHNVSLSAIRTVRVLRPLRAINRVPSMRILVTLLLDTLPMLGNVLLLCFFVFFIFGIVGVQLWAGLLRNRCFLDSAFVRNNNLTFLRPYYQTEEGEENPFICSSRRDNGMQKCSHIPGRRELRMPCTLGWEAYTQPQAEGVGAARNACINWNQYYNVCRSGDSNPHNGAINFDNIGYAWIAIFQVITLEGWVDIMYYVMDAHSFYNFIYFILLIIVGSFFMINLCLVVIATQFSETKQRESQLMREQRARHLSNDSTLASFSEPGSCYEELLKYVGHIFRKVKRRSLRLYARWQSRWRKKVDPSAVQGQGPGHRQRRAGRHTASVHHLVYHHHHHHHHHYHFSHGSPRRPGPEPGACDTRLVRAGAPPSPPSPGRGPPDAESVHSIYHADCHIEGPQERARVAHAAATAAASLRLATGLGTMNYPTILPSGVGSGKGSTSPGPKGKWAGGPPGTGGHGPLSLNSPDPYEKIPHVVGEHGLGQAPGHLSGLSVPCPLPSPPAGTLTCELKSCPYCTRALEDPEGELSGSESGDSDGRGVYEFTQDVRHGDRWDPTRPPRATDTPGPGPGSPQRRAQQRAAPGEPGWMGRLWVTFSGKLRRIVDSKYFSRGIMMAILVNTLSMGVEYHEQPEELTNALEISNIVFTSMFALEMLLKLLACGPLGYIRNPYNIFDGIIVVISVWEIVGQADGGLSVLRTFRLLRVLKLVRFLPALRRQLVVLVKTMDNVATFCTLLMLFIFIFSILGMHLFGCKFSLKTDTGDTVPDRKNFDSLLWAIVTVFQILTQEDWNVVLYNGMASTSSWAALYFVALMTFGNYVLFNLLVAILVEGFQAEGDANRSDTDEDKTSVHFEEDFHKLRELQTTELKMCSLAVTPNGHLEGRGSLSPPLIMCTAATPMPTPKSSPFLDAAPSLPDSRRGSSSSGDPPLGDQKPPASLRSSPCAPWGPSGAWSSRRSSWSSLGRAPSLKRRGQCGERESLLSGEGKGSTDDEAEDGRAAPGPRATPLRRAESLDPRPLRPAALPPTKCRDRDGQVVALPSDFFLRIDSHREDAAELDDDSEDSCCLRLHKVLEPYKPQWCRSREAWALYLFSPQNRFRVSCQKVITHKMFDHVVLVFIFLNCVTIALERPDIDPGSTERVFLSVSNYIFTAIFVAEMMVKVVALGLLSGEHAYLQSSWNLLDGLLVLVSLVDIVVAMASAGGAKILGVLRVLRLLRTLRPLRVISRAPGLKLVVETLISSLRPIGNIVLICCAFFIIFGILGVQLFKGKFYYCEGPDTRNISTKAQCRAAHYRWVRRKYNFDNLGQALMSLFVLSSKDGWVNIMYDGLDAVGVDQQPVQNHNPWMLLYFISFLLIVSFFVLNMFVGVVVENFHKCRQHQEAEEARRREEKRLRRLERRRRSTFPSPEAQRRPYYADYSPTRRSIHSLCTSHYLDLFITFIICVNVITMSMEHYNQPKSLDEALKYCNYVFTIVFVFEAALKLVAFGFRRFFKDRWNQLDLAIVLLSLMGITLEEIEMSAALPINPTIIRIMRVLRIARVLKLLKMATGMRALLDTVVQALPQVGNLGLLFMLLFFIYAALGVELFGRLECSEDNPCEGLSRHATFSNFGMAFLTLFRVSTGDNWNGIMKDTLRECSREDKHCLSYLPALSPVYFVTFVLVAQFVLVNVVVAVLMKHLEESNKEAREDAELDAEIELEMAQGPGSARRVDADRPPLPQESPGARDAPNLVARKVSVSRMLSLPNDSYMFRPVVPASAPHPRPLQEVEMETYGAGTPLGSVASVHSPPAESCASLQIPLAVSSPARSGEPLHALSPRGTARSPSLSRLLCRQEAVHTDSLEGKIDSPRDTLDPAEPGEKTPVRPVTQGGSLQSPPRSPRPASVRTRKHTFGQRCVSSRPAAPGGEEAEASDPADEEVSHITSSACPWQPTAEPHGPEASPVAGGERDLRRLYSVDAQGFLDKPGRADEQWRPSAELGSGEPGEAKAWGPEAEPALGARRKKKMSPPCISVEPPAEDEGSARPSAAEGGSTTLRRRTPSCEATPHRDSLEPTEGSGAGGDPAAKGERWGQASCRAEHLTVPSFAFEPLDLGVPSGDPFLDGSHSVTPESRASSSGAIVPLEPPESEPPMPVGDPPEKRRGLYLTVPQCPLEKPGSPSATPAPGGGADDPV
T1 sequence (O43497 whole entry): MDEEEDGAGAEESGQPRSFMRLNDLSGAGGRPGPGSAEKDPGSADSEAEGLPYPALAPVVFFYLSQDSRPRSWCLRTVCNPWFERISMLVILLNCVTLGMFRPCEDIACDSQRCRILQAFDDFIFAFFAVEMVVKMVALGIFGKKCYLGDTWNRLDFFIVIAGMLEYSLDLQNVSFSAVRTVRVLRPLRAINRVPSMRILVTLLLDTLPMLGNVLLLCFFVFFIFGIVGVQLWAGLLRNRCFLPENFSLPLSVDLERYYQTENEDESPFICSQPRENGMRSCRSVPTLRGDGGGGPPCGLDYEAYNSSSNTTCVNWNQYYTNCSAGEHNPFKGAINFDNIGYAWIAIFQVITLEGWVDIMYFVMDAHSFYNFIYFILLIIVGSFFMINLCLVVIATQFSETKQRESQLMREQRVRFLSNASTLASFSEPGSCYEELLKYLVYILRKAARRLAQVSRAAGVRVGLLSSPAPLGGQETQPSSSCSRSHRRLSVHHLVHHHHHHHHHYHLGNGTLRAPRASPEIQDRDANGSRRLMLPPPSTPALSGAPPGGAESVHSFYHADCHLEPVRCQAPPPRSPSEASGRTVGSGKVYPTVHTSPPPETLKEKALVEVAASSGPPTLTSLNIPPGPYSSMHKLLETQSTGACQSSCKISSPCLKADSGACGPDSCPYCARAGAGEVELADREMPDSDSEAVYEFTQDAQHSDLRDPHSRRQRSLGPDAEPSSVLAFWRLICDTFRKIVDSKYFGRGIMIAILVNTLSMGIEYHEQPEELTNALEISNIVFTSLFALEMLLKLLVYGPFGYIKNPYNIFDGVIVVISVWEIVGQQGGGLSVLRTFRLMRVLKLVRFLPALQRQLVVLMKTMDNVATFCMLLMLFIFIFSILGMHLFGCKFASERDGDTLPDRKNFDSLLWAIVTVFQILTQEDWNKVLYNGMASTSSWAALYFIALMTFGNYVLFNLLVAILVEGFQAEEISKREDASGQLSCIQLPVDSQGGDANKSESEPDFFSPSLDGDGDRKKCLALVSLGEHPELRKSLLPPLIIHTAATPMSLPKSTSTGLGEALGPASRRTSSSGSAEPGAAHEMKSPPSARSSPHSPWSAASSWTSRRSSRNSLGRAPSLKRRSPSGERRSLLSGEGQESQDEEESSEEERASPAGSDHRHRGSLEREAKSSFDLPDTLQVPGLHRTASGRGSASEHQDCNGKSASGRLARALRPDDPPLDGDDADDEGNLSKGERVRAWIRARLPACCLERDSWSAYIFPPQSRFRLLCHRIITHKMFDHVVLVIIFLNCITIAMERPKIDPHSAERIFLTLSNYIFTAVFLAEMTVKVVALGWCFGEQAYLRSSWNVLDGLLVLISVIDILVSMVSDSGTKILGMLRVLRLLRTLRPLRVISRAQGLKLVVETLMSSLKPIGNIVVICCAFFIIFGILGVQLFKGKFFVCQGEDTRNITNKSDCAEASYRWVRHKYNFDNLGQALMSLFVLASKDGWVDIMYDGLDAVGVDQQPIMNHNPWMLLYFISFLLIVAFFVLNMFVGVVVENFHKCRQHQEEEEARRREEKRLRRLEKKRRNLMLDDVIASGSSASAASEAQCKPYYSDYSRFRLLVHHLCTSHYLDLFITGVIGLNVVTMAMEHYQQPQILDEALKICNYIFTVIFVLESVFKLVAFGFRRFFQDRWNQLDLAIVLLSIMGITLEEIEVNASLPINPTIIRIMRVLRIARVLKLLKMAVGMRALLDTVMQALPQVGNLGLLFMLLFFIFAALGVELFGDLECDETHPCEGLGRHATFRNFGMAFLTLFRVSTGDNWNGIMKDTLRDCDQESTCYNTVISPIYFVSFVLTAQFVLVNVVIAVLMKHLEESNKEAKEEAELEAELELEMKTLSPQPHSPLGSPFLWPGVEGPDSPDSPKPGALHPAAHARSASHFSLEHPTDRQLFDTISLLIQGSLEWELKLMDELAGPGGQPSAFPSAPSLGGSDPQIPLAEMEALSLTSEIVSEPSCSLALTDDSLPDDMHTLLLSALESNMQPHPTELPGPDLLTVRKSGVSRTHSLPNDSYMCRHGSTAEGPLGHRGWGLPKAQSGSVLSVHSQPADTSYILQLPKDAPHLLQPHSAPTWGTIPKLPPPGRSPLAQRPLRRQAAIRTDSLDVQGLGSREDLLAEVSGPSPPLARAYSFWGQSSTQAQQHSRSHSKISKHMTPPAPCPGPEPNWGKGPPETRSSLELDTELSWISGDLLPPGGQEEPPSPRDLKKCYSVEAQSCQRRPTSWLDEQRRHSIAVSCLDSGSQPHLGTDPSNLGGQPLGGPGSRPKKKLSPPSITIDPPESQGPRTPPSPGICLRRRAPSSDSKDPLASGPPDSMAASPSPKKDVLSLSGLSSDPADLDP

SMILES: CC(C)(C)NC(=O)CN[C@H]1CC[C@H](CNC(=O)c2cccc(OC(F)(F)F)c2)CC1 [Compound 189, N-(((1r,4r)-4-(2-(tert-butylamino)-2-oxoethylamino)cyclohexyl)methyl)-3-(trifluoromethoxy)benzamide]
- IC50 [1]: 3.66 µM
- IC50 [2]: 1.66 µM

SMILES: CC1(NC(=O)CN[C@H]2CC[C@H](CNC(=O)c3cccc(OC(F)(F)F)c3)CC2)CCC1 [Compound 190, N-(((1r,4r)-4-(2-(1-methylcyclobutylamino)-2-oxoethylamino)cyclohexyl)methyl)-3-(trifluoromethoxy)benzamide]
- IC50 [1]: 1.63 µM
- IC50 [2]: 0.62 µM

SMILES: CC(C)(C)NC(=O)CN[C@H]1CC[C@H](CNC(=O)c2cc(Cl)cc(Cl)c2)CC1 [Compound 191, N-(((1r,4r)-4-(2-(tert-butylamino)-2-oxoethylamino)cyclohexyl)methyl)-3,5-dichlorobenzamide]
- IC50 [1]: 0.53 µM
- IC50 [2]: 0.18 µM

SMILES: CC1(NC(=O)CN[C@H]2CC[C@H](CNC(=O)c3cc(Cl)cc(Cl)c3)CC2)CCC1 [Compound 192, 3,5-dichloro-N-(((1r,4r)-4-(2-(1-methylcyclobutylamino)-2-oxoethylamino)cyclohexyl)methyl)benzamide]
- IC50 [1]: 0.34 µM
- IC50 [2]: 0.12 µM

SMILES: CC1(NC(=O)CN[C@H]2CC[C@@H](CNC(=O)c3cc(F)cc(Cl)c3)CC2)CCC1 [Compound 193, 3-chloro-5-fluoro-N-(((1s,4s)-4-(2-(1-methylcyclobutylamino)-2-oxoethylamino)cyclohexyl)methyl)benzamide]
- IC50 [1]: 0.72 µM
- IC50 [2]: 0.23 µM

SMILES: CC1(C)COCCN1C(=O)CN[C@H]1CC[C@@H](CNC(=O)c2cc(F)cc(Cl)c2)CC1 [Compound 194, 3-chloro-N-(((1s,4s)-4-(2-(3,3-dimethylmorpholino)-2-oxoethylamino)cyclohexyl)methyl)-5-fluorobenzamide]
- IC50 [1]: 3.4 µM
- IC50 [2]: 0.4 µM

SMILES: CC1(C)CCCN1C(=O)CN[C@H]1CC[C@@H](CNC(=O)c2cc(F)cc(Cl)c2)CC1 [Compound 195, 3-chloro-N-(((1s,4s)-4-(2-(2,2-dimethylpyrrolidin-1-yl)-2-oxoethylamino)cyclohexyl)methyl)-5-fluorobenzamide]
- IC50 [1]: 1.1 µM
- IC50 [2]: 0.17 µM

SMILES: CN(C(=O)CN[C@H]1CC[C@@H](CNC(=O)c2cc(F)cc(Cl)c2)CC1)C(C)(C)C [Compound 196, N-(((1s,4s)-4-(2-(tert-butyl(methyl)amino)-2-oxoethylamino)cyclohexyl)methyl)-3-chloro-5-fluorobenzamide]
- IC50 [1]: 1.62 µM
- IC50 [2]: 0.21 µM

SMILES: COc1cc(F)cc(C(=O)NC[C@H]2CC[C@@H](NCC(=O)NC3(C)CCC3)CC2)c1 [Compound 197, 3-fluoro-5-methoxy-N-(((1s,4s)-4-(2-(1-methylcyclobutylamino)-2-oxoethylamino)cyclohexyl)methyl)benzamide]
- IC50 [1]: 1.94 µM
- IC50 [2]: 0.26 µM

SMILES: COc1cc(F)cc(C(=O)NC[C@H]2CC[C@@H](NCC(=O)N3CCOCC3(C)C)CC2)c1 [Compound 198, N-(((1s,4s)-4-(2-(3,3-dimethylmorpholino)-2-oxoethylamino)cyclohexyl)methyl)-3-fluoro-5-methoxybenzamide]
- IC50 [1]: 9.92 µM
- IC50 [2]: 0.63 µM

SMILES: COc1cc(F)cc(C(=O)NC[C@H]2CC[C@@H](NCC(=O)N3CCCC3(C)C)CC2)c1 [Compound 199, N-(((1s,4s)-4-(2-(2,2-dimethylpyrrolidin-1-yl)-2-oxoethylamino)cyclohexyl)methyl)-3-fluoro-5-methoxybenzamide]
- IC50 [1]: 3.8 µM
- IC50 [2]: 0.35 µM

SMILES: COc1cc(F)cc(C(=O)NC[C@H]2CC[C@@H](NCC(=O)N(C)C(C)(C)C)CC2)c1 [Compound 200, N-(((1s,4s)-4-(2-(tert-butyl(methyl)amino)-2-oxoethylamino)cyclohexyl)methyl)-3-fluoro-5-methoxybenzamide]
- IC50 [1]: 3.35 µM
- IC50 [2]: 0.47 µM

SMILES: CC(C)(C)NC(=O)CN[C@H]1CC[C@H](CNC(=O)c2cc(F)cc(Cl)c2)CC1 [Compound 201, N-(((1r,4r)-4-(2-(tert-butylamino)-2-oxoethylamino)cyclohexyl)methyl)-3-chloro-5-fluorobenzamide]
- IC50 [1]: 1.8 µM
- IC50 [2]: 0.57 µM

SMILES: CC1(NC(=O)CN[C@H]2CC[C@H](CNC(=O)c3cc(F)cc(Cl)c3)CC2)CCC1 [Compound 202, 3-chloro-5-fluoro-N-(((1r,4r)-4-(2-(1-methylcyclobutylamino)-2-oxoethylamino)cyclohexyl)methyl)benzamide]
- IC50 [1]: 0.97 µM
- IC50 [2]: 0.31 µM

SMILES: CC1(C)COCCN1C(=O)CN[C@H]1CC[C@H](CNC(=O)c2cc(F)cc(Cl)c2)CC1 [Compound 203, 3-chloro-N-(((1r,4r)-4-(2-(3,3-dimethylmorpholino)-2-oxoethylamino)cyclohexyl)methyl)-5-fluorobenzamide]
- IC50 [1]: 6.13 µM
- IC50 [2]: 2.16 µM

SMILES: CC1(C)CCCN1C(=O)CN[C@H]1CC[C@H](CNC(=O)c2cc(F)cc(Cl)c2)CC1 [Compound 204, 3-chloro-N-(((1r,4r)-4-(2-(2,2-dimethylpyrrolidin-1-yl)-2-oxoethylamino)cyclohexyl)methyl)-5-fluorobenzamide]
- IC50 [1]: 1.58 µM
- IC50 [2]: 0.65 µM

SMILES: CN(C(=O)CN[C@H]1CC[C@H](CNC(=O)c2cc(F)cc(Cl)c2)CC1)C(C)(C)C [Compound 205, N-(((1r,4r)-4-(2-(tert-butyl(methyl)amino)-2-oxoethylamino)cyclohexyl)methyl)-3-chloro-5-fluorobenzamide]
- IC50 [1]: 2.02 µM
- IC50 [2]: 1.1 µM

SMILES: COc1cc(F)cc(C(=O)NC[C@H]2CC[C@H](NCC(=O)NC(C)(C)C)CC2)c1 [Compound 206, N-(((1r,4r)-4-(2-(tert-butylamino)-2-oxoethylamino)cyclohexyl)methyl)-3-fluoro-5-methoxybenzamide]
- IC50 [1]: 4.42 µM
- IC50 [2]: 1.03 µM

SMILES: COc1cc(F)cc(C(=O)NC[C@H]2CC[C@H](NCC(=O)NC3(C)CCC3)CC2)c1 [Compound 207, 3-fluoro-5-methoxy-N-(((1r,4r)-4-(2-(1-methylcyclobutylamino)-2-oxoethylamino)cyclohexyl)methyl)benzamide]
- IC50 [1]: 3.82 µM
- IC50 [2]: 0.92 µM

SMILES: COc1cc(F)cc(C(=O)NC[C@H]2CC[C@H](NCC(=O)N3CCOCC3(C)C)CC2)c1 [Compound 208, N-(((1r,4r)-4-(2-(3,3-dimethylmorpholino)-2-oxoethylamino)cyclohexyl)methyl)-3-fluoro-5-methoxybenzamide]
- IC50 [1]: ≥ 10 µM
- IC50 [2]: 4.33 µM

SMILES: COc1cc(F)cc(C(=O)NC[C@H]2CC[C@H](NCC(=O)N3CCCC3(C)C)CC2)c1 [Compound 209, N-(((1r,4r)-4-(2-(2,2-dimethylpyrrolidin-1-yl)-2-oxoethylamino)cyclohexyl)methyl)-3-fluoro-5-methoxybenzamide]
- IC50 [1]: 4.05 µM
- IC50 [2]: 1.6 µM

SMILES: COc1cc(F)cc(C(=O)NC[C@H]2CC[C@H](NCC(=O)N(C)C(C)(C)C)CC2)c1 [Compound 210, N-(((1r,4r)-4-(2-(tert-butyl(methyl)amino)-2-oxoethylamino)cyclohexyl)methyl)-3-fluoro-5-methoxybenzamide]
- IC50 [1]: 5.61 µM
- IC50 [2]: 2.39 µM

SMILES: CN(C(=O)CN[C@H]1CC[C@H](CNC(=O)c2cc(F)cc(Cl)c2)CC1)C1(C)CCC1 [Compound 211, 3-chloro-5-fluoro-N-(((1r,4r)-4-(2-(methyl(1-methylcyclobutyl)amino)-2-oxoethylamino)cyclohexyl)methyl)benzamide]
- IC50 [1]: 1.18 µM
- IC50 [2]: 0.54 µM

SMILES: COCC(C)(C)N(C)C(=O)CN[C@H]1CC[C@@H](CNC(=O)c2cc(F)cc(Cl)c2)CC1 [Compound 212, 3-chloro-5-fluoro-N-(((1s,4s)-4-(2-((1-methoxy-2-methylpropan-2-yl)(methyl)amino)-2-oxoethylamino)cyclohexyl)methyl)benzamide]
- IC50 [1]: 1.58 µM
- IC50 [2]: 0.42 µM

SMILES: CN(C(=O)CN[C@H]1CC[C@@H](CNC(=O)c2cc(F)cc(Cl)c2)CC1)C1(C)CCC1 [Compound 213, 3-chloro-5-fluoro-N-(((1s,4s)-4-(2-(methyl(1-methylcyclobutyl)amino)-2-oxoethylamino)cyclohexyl)methyl)benzamide]
- IC50 [1]: 1.03 µM
- IC50 [2]: 0.33 µM

SMILES: COCC(C)(C)N(C)C(=O)CN[C@H]1CC[C@@H](CNC(=O)c2cc(F)cc(OC)c2)CC1 [Compound 214, 3-fluoro-5-methoxy-N-(((1s,4s)-4-(2-((1-methoxy-2-methylpropan-2-yl)(methyl)amino)-2-oxoethylamino)cyclohexyl)methyl)benzamide]
- IC50 [1]: 5.82 µM
- IC50 [2]: 0.71 µM

SMILES: COc1cc(F)cc(C(=O)NC[C@H]2CC[C@@H](NCC(=O)N(C)C3(C)CCC3)CC2)c1 [Compound 215, 3-fluoro-5-methoxy-N-(((1s,4s)-4-(2-(methyl(1-methylcyclobutyl)amino)-2-oxoethylamino)cyclohexyl)methyl)benzamide]
- IC50 [1]: 1.99 µM
- IC50 [2]: 0.41 µM

SMILES: COCC(=O)O[C@]1(CCN(C)CCCc2nc3ccccc3[nH]2)CCc2cc(F)ccc2[C@@H]1C(C)C [Mibefradil]
- fold selective for T-type over L-type channels [3]: 10-30 fold
- anti-hyperalgesic activity in the spinal nerve ligation model [4]: anti-hyperalgesic activity

SMILES: CCC1(C)CC(=O)NC1=O (stereo not drawn) [ethosuximide]
- anti-hyperalgesic activity in the spinal nerve ligation model [4]: anti-hyperalgesic activity
